Source: paper PMC5877736, “Functional Characteristics, Electrophysiological and Antennal Immunolocalization of General Odorant-Binding Protein 2 in Tea Geometrid, Ectropis obliqua” (International Journal of Molecular Sciences, 2018)
Where two headings read alike, the source gives them in different places.

Experiments:
E. obliqua antennae = test: Electroantennogram (EAG) of male and female antennae; parameters: species or system Ectropis obliqua; details: volatiles at 10 mg/mL (Figure 7)
Procedure: To characterize the relationship between ligand-binding and E. obliqua olfactory activity, seven ligands with strong EoblGOBP2 binding affinities were selected for EAG measurements.
The antennal olfactory responses of E. obliqua to seven candidate tea volatiles were tested by the EAG technique. Prior to EAG experiments, all test ligands were dissolved into liquid paraffin at a concentration of 0.1 (v/v). The fresh […] antenna were excised from its base, and immediately attached onto the fork electrode holder using non-drying clay (Spectra 360 Electrode Gel, Parker Laboratories Inc., Orange, NJ, USA). […] All antennae should be tested in three replicates.
The odor stimulus was performed in the pulse while recording the electroantennogram of antennae. (E)-3-hexenol and liquid paraffin were chosen as the positive and negative control CK, respectively. All antennae were stimulated with five samples, and each tested sample was repeated six times. EAG signals were recorded and analyzed with EAG-Pro software (Syntech, Hilversum, NT). The relative values of EAG response were calculated using the following formula: Sr = (Sc − CKm)/(Rm − CKm)·100% [52]. Where Sr is the relative value of the EAG response, Sc is the EAG response for a certain odor, CKm is the mean of the EAG responses of liquid paraffin before and after the test odor stimulus, and Rm is the mean of the EAG response of (Z)-3-hexenol.

EoblGOBP2 = EoblGOBP2 (Ectropis obliqua, UniProt C0JAP5); test: Competitive fluorescence ligand-binding assay with 1-NPN as fluorescent probe; details: for binding to EoblGOBP2 (in words): competitive binding with 1-NPN
EoblGOBP2, sequence (C0JAP5 entry or part of it): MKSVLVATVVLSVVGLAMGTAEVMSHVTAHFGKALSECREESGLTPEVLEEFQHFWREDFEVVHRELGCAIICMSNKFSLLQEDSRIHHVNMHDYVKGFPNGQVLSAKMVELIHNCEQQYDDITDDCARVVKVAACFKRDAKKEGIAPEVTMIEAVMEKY
Procedure: For EoblGOBP2 binding assays, 1-NPN was used as a competitive fluorescent reporter. When 1-NPN was added dropwise to the protein solution, the maximum emission peak at 340 nm was shifted to about 420 nm. The dissociation constant of 1-NPN to EoblGOBP2 was approximately 2.31 μM calculated using the Scatchard equation (Figure 5A). Using 1-NPN as a fluorescent probe, the binding affinities of EoblGOBP2 to 19 ligands were measured using competitive binding assays. IC50 values and dissociation constants (KD) were then calculated (Table 1).
Ligand-binding assays were performed on a RF-5031pc Fluorescence Spectrophotometer (Shimadzu, Tokyo, Japan). The excitation and emission slits were set to 10 nm. Fluorescence spectra were recorded from 300 to 550 nm with an excitation wavelength of 282 nm. The recombinant EoblGOBP2 protein solutions (1.5 μM), served in 1 cm light path quartz cuvette, were titrated with 1 mM 1-NPN solution in methanol. The fluorescence intensity at the maximum emission wavelength of about 328 nm was linearized using the Scatchard equation [46], then the dissociation constants for 1-NPN (K1-NPN) was calculated.
Nineteen fresh tea leaf volatiles were used as test ligands. For the binding affinities of the ligands to EoblGOBP2, a mixture of 1-NPN and EoblGOBP2 protein was titrated with 1 μM ligands dissolved in methanol. The IC50 values were obtained by data linearization, and the dissociation constants (KD) were calculated using the following equation: KD = [IC50]/(1 + [1-NPN]/K1-NPN), where [1-NPN] is the free concentration of 1-NPN, and K1-NPN is the dissociation constant of the protein/1-NPN complex.

[1] = calculated from IC50: KD = [IC50]/(1 + [1-NPN]/K1-NPN), protein 1.5 μM, read-out: KD Dissociation Constant
[2] = ligand concentration halving 1-NPN fluorescence, protein 1.5 μM
[3] = class symbol, protein 1.5 μM, read-out: KD Dissociation Constant

Compound | Kd (EoblGOBP2; [1]) [µM] | IC50 (EoblGOBP2; [2]) [µM] | IC50 (EoblGOBP2; class symbol, protein 1.5 μM) [µM] | Kd (EoblGOBP2; [3]) [µM] | also measured
CCCCCCC/C=C/C=O [(E)-2-decenal] | 20.7 | 92.4 |  |  | EAG response, male versus female antennae (E. obliqua antennae): stronger in male antennae than in female antennae
CC/C=C/C=O [(E)-2-pentenal] |  |  | > 50 | > 11.2 | 
C1COCO1 [1,3-dioxolane] |  |  | > 50 | > 11.2 | binding to EoblGOBP2 (in words) (EoblGOBP2): could not bind
CCCCCCO [n-hexanol] |  |  | > 50 | > 11.2 | 
C=CC(C)(O)CCC=C(C)C (stereo not drawn) [Linalool] |  |  | > 50 | > 11.2 | 
O=Cc1ccccc1 [Benzaldehyde] | 44.2 | 197 |  |  | EAG response, male versus female antennae (E. obliqua antennae): stronger in male antennae than in female antennae
CC/C=C\CCO [(Z)-3-hexenol] |  |  | > 50 | > 11.2 | 
CC(C)=CCC/C(C)=C\CO [Nerol] |  |  | > 50 | > 11.2 | 
OCc1ccccc1 [Benzyl alcohol] |  |  | > 50 | > 11.2 | 
CC(=O)/C=C/C1=C(C)CCCC1(C)C [β-ionone] | 12.6 | 56.1 |  |  | EAG response in male and female antennae (in words) (E. obliqua antennae): weak responses
C=CC(O)CC (stereo not drawn) [1-penten-3-ol] |  |  | > 50 | > 11.2 | 
CC(=O)c1ccccc1 [Acetophenone] | 13 | 57.9 |  |  | EAG response, male versus female antennae (E. obliqua antennae): stronger in male antennae than in female antennae
CC1=CC[C@@H](C(C)(C)O)CC1 [α-terpineol] |  |  | > 50 | > 11.2 | 
CCCCCO [n-pentanol] |  |  | > 50 | > 11.2 | 
CCC/C=C/C=O [(E)-2-hexenal] | 32.2 | 143 |  |  | EAG response, male versus female antennae (E. obliqua antennae): stronger in male antennae than in female antennae
c1ccc(Nc2cccc3ccccc23)cc1 [1-NPN, N-phenyl-1-naphthylamine, reference compound] |  |  |  |  | Kd (EoblGOBP2; direct titration, Scatchard equation, read-out: dissociation constant of 1-NPN to EoblGOBP2): ~2.31 µM
COC(=O)c1ccccc1O [Methyl salicylate] | 43.5 | 194 |  |  | EAG response, male versus female antennae (E. obliqua antennae): stronger in male antennae than in female antennae
CCCCOC(=O)c1ccccc1C(=O)OCCCC [Dibutyl phthalate] | 4.35 | 19.4 |  |  | EAG response in male and female antennae (in words) (E. obliqua antennae): weak responses
CCOP(=O)(OCC)OCC [Triethyl phosphate] |  |  | > 50 | > 11.2 | 
CCCCCCCCCCCCCCCC(=O)O [Hexadecanoic acid] |  |  | > 50 | > 11.2 | binding to EoblGOBP2 (in words) (EoblGOBP2): could not bind
